# Patent publication EP4667458A1 (Kanaph Therapeutics Inc., priority 2023, dated 2024)
# Target: T1, SOS1 (Homo sapiens, UniProt Q07889)
# T1 construct: adding equal amounts of HIS-SOS1cat (160 nM; Cytoskeleton, US); His; purchased Cytoskeleton, US
# T1 sequence (Q07889 564-1049 limits assumed): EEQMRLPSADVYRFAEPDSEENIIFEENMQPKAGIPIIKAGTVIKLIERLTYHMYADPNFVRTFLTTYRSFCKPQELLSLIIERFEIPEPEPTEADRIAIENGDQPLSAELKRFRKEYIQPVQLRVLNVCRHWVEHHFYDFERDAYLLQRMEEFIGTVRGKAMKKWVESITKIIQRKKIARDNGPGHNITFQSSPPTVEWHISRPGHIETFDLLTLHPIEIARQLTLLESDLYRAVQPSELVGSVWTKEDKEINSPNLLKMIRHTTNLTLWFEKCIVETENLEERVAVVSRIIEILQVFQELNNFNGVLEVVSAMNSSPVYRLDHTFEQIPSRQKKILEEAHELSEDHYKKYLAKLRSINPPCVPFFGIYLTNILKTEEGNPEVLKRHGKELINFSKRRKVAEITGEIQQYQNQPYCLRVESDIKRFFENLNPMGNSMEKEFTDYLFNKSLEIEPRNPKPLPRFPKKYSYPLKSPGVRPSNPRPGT
# Assay: SOS-catalyzed nucleotide exchange assay (HTRF, SOS1-mediated GTP loading of KRAS G12D)
# Type: biochemical
# Settings: GST-KRAS G12D, HIS-SOS1cat, EDA-GTP-DY-647P1; compound 128 pM to 10 µM; read-out: SOS-catalyzed nucleotide exchange assay (IC50 range, Grade)
# Description: SOS1 activity was measured by SOS1-mediated GTP loading quantification of KRAS^G12D. GTP-loaded KRAS^G12D was detected by HTRF (Homogeneous Time Resolved Fluorescence) using anti-GST terbium (Cisbio, France) as a donor and a fluorescence GTP analogue (EDA-GTP-DY-647P1, [DY-647P1-labeled 2'/3'-O-(2-aminoethyl-carbamoyl)guanosine-5'-triphosphate (Jena bioscience, Germany)]) as an acceptor.
# Assay buffer was composed of 10 mM HEPES pH 7.4, 150 mM NaCl, 5 mM MgCl2, 1 mM DTT, 0.05% BSA Fraction V pH 7.0 (Sigma) and 0.0025% (v/v) Igepal (Sigma). KRAS^G12D working solution was prepared by adding equal amounts of GST-KRAS^G12D (100 nM) and anti-GST-terbium (2 nM; Cisbio, France) to the assay buffer and incubating on ice for 10 minutes. SOS1cat working solution was prepared by adding equal amounts of HIS-SOS1cat (160 nM; Cytoskeleton, US) and EDA-GTP-DY-647P1 (200 nM; Jena bioscience, Germany) to the assay buffer. Control solution was prepared by adding equal volumes of EDA-GTP-DY-647P1 and the assay buffer for normalization control to exclude GEF-independent GTP loading and background signals. In order to induce a reaction, 5 µL of the SOS1cat working solution or the control solution was injected into each well. 5 µL of a compound having various concentrations from 128 pM to 10 µM was added to wells containing the SOS1cat working solution and incubated at room temperature for 10 minutes to bind to SOS1.
# 10 µL of the KRAS^G12D solution was added to each well and incubated for 30 minutes at room temperature while shaking. HTRF was measured using a Thermo Varioskan (excitation 334 nm, emission 665 nm). The IC50 of each inhibitor was analyzed using Graphad Prism.
# The SOS1 inhibitory activity of the Example compounds measured by the above method was evaluated based on the following criteria, and the results are shown in Table 29.
row,Molecule,IC50 [µM]
1,"C[C@@H](NC(=O)c1ccc(=O)n(C2CCCC2)n1)c1cc(N)cc(C(F)(F)F)c1 [Example 115, N-[(1R)-1-[3-amino-5-(trifluoromethyl)phenyl]ethyl]-1-cyclopentyl-6-oxo-1,6-dihydropyridazine-3-carboxamide]",1 to 10
2,"C[C@@H](NC(=O)c1ccc(=O)n(-c2ccccc2)n1)c1cccc(Br)c1 [Example 2, N-[(1R)-1-(3-bromophenyl)ethyl]-6-oxo-1-phenyl-pyridazine-3-carboxamide]",1 to 10
3,"C[C@@H](NC(=O)c1ccc(=O)n(-c2ccccc2)n1)c1cccc(Cl)c1 [Example 1, N-[(1R)-1-(3-chlorophenyl)ethyl]-6-oxo-1-phenyl-pyridazine-3-carboxamide]",1 to 10
4,"C[C@@H](NC(=O)c1cn(-c2ccccc2)c(=O)cn1)c1cc(N)cc(C(F)(F)F)c1 [Example 63, N-[(1R)-1-[3-amino-5-(trifluoromethyl)phenyl]ethyl]-5-oxo-4-phenyl-pyrazine-2-carboxamide]",1 to 10
5,"C[C@@H](NC(=O)c1ccc(=O)n(-c2ccccc2)n1)c1cccc([Si](C)(C)C)c1 [Example 61, 6-oxo-1-phenyl-N-[(1R)-1-(3-trimethylsilylphenyl)ethyl]pyridazine-3-carboxamide]",1 to 10
6,"C[C@@H](NC(=O)c1ccc(=O)n(C2CC2)n1)c1cc(N)cc(C(F)(F)F)c1 [Example 64, N-[(1R)-1-[3-amino-5-(trifluoromethyl)phenyl]ethyl]-1-cyclopropyl-6-oxo-1,6-dihydropyridazine-3-carboxamide]",1 to 10
7,"C[C@@H](NC(=O)c1ccc(=O)n(-c2ccccc2)n1)c1cccc(OC(F)(F)F)c1 [Example 10, 6-oxo-1-phenyl-N-[(1R)-1-[3-(trifluoromethoxy)phenyl]ethyl]pyridazine-3-carboxamide]",1 to 10
8,"C[C@@H](NC(=O)c1ccc(=O)n(C23CC(C2)C3)n1)c1cc(N)cc(C(F)(F)F)c1 [Example 70, N-[(1R)-1-[3-amino-5-(trifluoromethyl)phenyl]ethyl]-1-{bicyclo[1.1.1]pentan-1-yl}-6-oxo-1,6-dihydropyridazine-3-carboxamide]",1 to 10
9,"CNCc1ccc(Cl)cc1-c1cnc([C@@H](C)NC(=O)c2ccc(=O)n(-c3ccccc3F)c2)s1 [Example 138, N-[(1R)-1-[5-[5-chloro-2-(methylaminomethyl)phenyl]thiazol-2-yl]ethyl]-1-(2-fluorophenyl)-6-oxo-pyridine-3-carboxamide]",< 1
10,"(R)-1-([1,1'-biphenyl]-4-yl)-N-(1-(3-amino-5-(trifluoromethyl)phenyl)ethyl)-6-oxo-1,6-dihydropyridazine-3-carboxamide [Example 24]",1 to 10
11,"C[C@@H](NC(=O)c1ccc(=O)n(C2CCN(S(C)(=O)=O)CC2)n1)c1cccc(Cl)c1 [Example 19, (R)-N-(1-(3-chlorophenyl)ethyl)-1-(1-(methylsulfonyl)piperidin-4-yl)-6-oxo-1,6-dihydropyridazine-3-carboxamide]",1 to 10
12,"C[C@@H](NC(=O)c1ccc(=O)n(C2=CCOCC2)n1)c1cc(N)cc(C(F)(F)F)c1 [Example 128, N-[(1R)-1-[3-amino-5-(trifluoromethyl)phenyl]ethyl]-1-(3,6-dihydro-2H-pyran-4-yl)-6-oxo-1,6-dihydropyridazine-3-carboxamide]",< 1
13,"C[C@@H](NC(=O)c1ccc(=O)n(-c2ccccc2)n1)c1ccc(Br)cc1 [Example 6, (R)-N-(1-(4-bromophenyl)ethyl)-6-oxo-1-phenyl-1,6-dihydropyridazine-3-carboxamide]",> 10
14,"CC(=O)Nc1cccc(-n2nc(C(=O)N[C@H](C)c3cc(N)cc(C(F)(F)F)c3)ccc2=O)c1 [Example 35, (R)-1-(3-acetamidophenyl)-N-(1-(3-amino-5-(trifluoromethyl)phenyl)ethyl)-6-oxo-1,6-dihydropyridazine-3-carboxamide]",< 1

# Now from value to molecule:
row,IC50 [µM],Molecule
1,< 1,"C[C@@H](NC(=O)c1ccc(=O)n(-c2ccc(F)cc2F)c1)c1cc(N)cc(C(F)(F)F)c1 [Example 95, N-[(1R)-1-[3-amino-5-(trifluoromethyl)phenyl]ethyl]-1-(2,4-difluorophenyl)-6-oxo-1,6-dihydropyridine-3-carboxamide]"
2,< 1,"C[C@@H](NC(=O)c1ccc(=O)n(C2=CCN(C)CC2)n1)c1cc(N)cc(C(F)(F)F)c1 [Example 126, N-[(1R)-1-[3-amino-5-(trifluoromethyl)phenyl]ethyl]-1-(1-methyl-1,2,3,6-tetrahydropyridin-4-yl)-6-oxo-1,6-dihydropyridazine-3-carboxamide]"
3,< 1,"C[C@@H](NC(=O)c1ccc(=O)n(-c2cc(F)ccc2F)c1)c1cc(N)cc(C(F)(F)F)c1 [Example 96, N-[(1R)-1-[3-amino-5-(trifluoromethyl)phenyl]ethyl]-1-(2,5-difluorophenyl)-6-oxo-1,6-dihydropyridine-3-carboxamide]"
4,< 1,"C[C@@H](NC(=O)c1ccc(=O)n(-c2cccc(F)c2F)c1)c1cc(N)cc(C(F)(F)F)c1 [Example 94, N-[(1R)-1-[3-amino-5-(trifluoromethyl)phenyl]ethyl]-1-(2,3-difluorophenyl)-6-oxo-1,6-dihydropyridine-3-carboxamide]"
5,< 1,"C[C@@H](NC(=O)c1ccc(=O)n(-c2ccccc2)n1)c1cccc(C(F)(F)CO)c1F [Example 59, N-[(1R)-1-[3-(1,1-difluoro-2-hydroxy-ethyl)-2-fluoro-phenyl]ethyl]-6-oxo-1-phenyl-pyridazine-3-carboxamide]"
6,< 1,"C[C@@H](NC(=O)c1ccc(=O)n(-c2cccc(N3CCNC3=O)c2)c1)c1cc(N)cc(C(F)(F)F)c1 [Example 85, N-[(1R)-1-[3-amino-5-(trifluoromethyl)phenyl]ethyl]-6-oxo-1-[3-(2-oxoimidazolidin-1-yl)phenyl]-1,6-dihydropyridine-3-carboxamide]"
7,< 1,"COc1ccccc1-n1nc(C(=O)N[C@H](C)c2cc(N)cc(C(F)(F)F)c2)ccc1=O [Example 23, N-[(1R)-1-[3-amino-5-(trifluoromethyl)phenyl]ethyl]-1-(2-methoxyphenyl)-6-oxo-pyridazine-3-carboxamide]"
8,< 1,"C[C@@H](NC(=O)c1ccc(=O)n(C2=CCN(S(C)(=O)=O)CC2)n1)c1cc(N)cc(C(F)(F)F)c1 [Example 67, N-[(1R)-1-[3-amino-5-(trifluoromethyl)phenyl]ethyl]-1-(1-methanesulfonyl-1,2,3,6-tetrahydropyridin-4-yl)-6-oxo-1,6-dihydropyridazine-3-carboxamide]"
9,< 1,"C[C@@H](NC(=O)c1ccc(=O)n(-c2ccccc2O)n1)c1cc(N)cc(C(F)(F)F)c1 [Example 47, N-[(1R)-1-[3-amino-5-(trifluoromethyl)phenyl]ethyl]-1-(2-hydroxyphenyl)-6-oxo-pyridazine-3-carboxamide]"
10,< 1,"C[C@@H](NC(=O)c1ccc(=O)n(-c2ccccc2OC(F)(F)F)n1)c1cccc(C(F)(F)CO)c1F [Example 44, (R)-N-(1-(3-(1,1-difluoro-2-hydroxyethyl)-2-fluorophenyl)ethyl)-6-oxo-1-(2-(trifluoromethoxy)phenyl)-1,6-dihydropyridazine-3-carboxamide]"
11,< 1,"C[C@@H](NC(=O)c1ccc(=O)n(-c2cccc(C(=O)N(C)C)c2)n1)c1cc(N)cc(C(F)(F)F)c1 [Example 31, (R)-N-(1-(3-amino-5-(trifluoromethyl)phenyl)ethyl)-1-(3-(dimethylcarbamoyl)phenyl)-6-oxo-1,6-dihydropyridazine-3-carboxamide]"
12,< 1,"CC(=O)Nc1cccc(-n2cc(C(=O)N[C@H](C)c3cc(N)cc(C(F)(F)F)c3)ccc2=O)c1 [Example 129, N-[(1R)-1-[3-amino-5-(trifluoromethyl)phenyl]ethyl]-1-(3-acetamidophenyl)-6-oxo-1,6-dihydropyridine-3-carboxamide]"
